SMILES strings stand for the structures.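 Method: 48-hour compound exposure of cells in 96-well plates, five concentrations, linear interpolation of endpoints. TGI is the concentration that stops growth completely.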

Among the test systems are OVCAR-5 ovarian; NCI-H226 lung; SN12C renal; SK-MEL-5 melanoma; HCT-15 colon; A549 NSCLC; TK-10 renal; NCI/ADR-RES ovarian; DU-145 prostate; BT-549 breast.
Common to all, as to assay: DTP human tumour cell line panel, 48 h

For `O=C(O)C(CS)N=c1c2ccccc2n(O)c2ccccc12` (stereo not drawn), the TGI with OVCAR-5 ovarian, in the assay on NCI-H226 lung, in the assay with SN12C renal, with SK-MEL-5 melanoma, in the assay with HCT-15 colon and in the assay with A549 NSCLC was > 100 µM in each case. Further, in the assay with TK-10 renal, the concentration for total growth inhibition (TGI) is > 100 µM.

For the molecule `COC1(OC)CCCCC2c3cccc(OC(C)=O)c3C21OC(C)=O` (stereo not drawn), the total growth inhibition concentration (TGI) in the assay with OVCAR-5 ovarian, in the assay with NCI-H226 lung, in the assay on SN12C renal, in the assay with SK-MEL-5 melanoma, with HCT-15 colon and in the assay with A549 NSCLC was > 100 µM each time. Also, in the assay on TK-10 renal, the TGI is > 100 µM.

`COC(=O)C1CC2(c3ccccc3)C(=O)c3ccccc3N2O1` (stereo not drawn): the total growth inhibition concentration (TGI) in the assay on OVCAR-5 ovarian, in the assay with NCI-H226 lung, with SN12C renal, with SK-MEL-5 melanoma, in the assay on HCT-15 colon and in the assay on A549 NSCLC was > 100 µM throughout. In the assay on TK-10 renal, the TGI was > 100 µM.

On to `COC(=O)/C=C/c1cc(OC)c(OC)c(OC)c1`, for which the TGI in the assay on NCI-H226 lung, with SN12C renal, with SK-MEL-5 melanoma, in the assay with HCT-15 colon, in the assay on A549 NSCLC and in the assay on TK-10 renal was > 100 µM throughout.

Take `CCC(C(=O)c1ccc(OC)c(OC)c1)N(C(=O)C(F)(F)F)C(C)c1ccccc1` (stereo not drawn): the TGI in the assay with OVCAR-5 ovarian, in the assay with SK-MEL-5 melanoma, in the assay on NCI/ADR-RES ovarian, with DU-145 prostate, in the assay with HCT-15 colon and with A549 NSCLC was > 100 µM in each case. In addition, in the assay with TK-10 renal, the TGI was > 100 µM.

`O=C(Cc1ccc([N+](=O)[O-])cc1)OCC#CCOC(=O)Cc1ccc([N+](=O)[O-])cc1`: the total growth inhibition concentration (TGI) in the assay on OVCAR-5 ovarian, with SN12C renal, with SK-MEL-5 melanoma, with BT-549 breast, in the assay on NCI/ADR-RES ovarian and with HCT-15 colon was > 10 µM each time. Further, the concentration for total growth inhibition (TGI) with A549 NSCLC and in the assay on TK-10 renal was > 10 µM each time.

For `Nc1ccc2[nH]c(-c3cccc(Cl)c3)cc(=O)c2c1`, the concentration for total growth inhibition (TGI) is > 100 µM with OVCAR-5 ovarian; > 100 µM with SN12C renal; > 100 µM with SK-MEL-5 melanoma; > 100 µM in the assay on BT-549 breast; 12.4 µM in the assay on NCI/ADR-RES ovarian; > 100 µM in the assay with HCT-15 colon. Also, the TGI was > 100 µM in the assay on A549 NSCLC and 8.55 µM in the assay on TK-10 renal.

As to `c1ccc(/C(=N/Nc2ccccn2)c2ncccn2)cc1`, the TGI with OVCAR-5 ovarian is > 100 µM; with NCI-H226 lung it was 0.956 µM; in the assay with SN12C renal, > 100 µM; with SK-MEL-5 melanoma, 26.9 µM; in the assay with BT-549 breast, > 100 µM; in the assay on NCI/ADR-RES ovarian, 4.67 µM. Moreover, the TGI was > 100 µM with DU-145 prostate, > 100 µM with HCT-15 colon and > 76.9 µM with A549 NSCLC.

In the case of `C=CCOCCCCC(C(C)=O)C(=O)OC` (stereo not drawn), the TGI in the assay on OVCAR-5 ovarian, in the assay with NCI-H226 lung, in the assay with SN12C renal, with SK-MEL-5 melanoma, in the assay on DU-145 prostate and in the assay with HCT-15 colon was > 100 µM each time. For the same molecule, the TGI in the assay on A549 NSCLC and in the assay on TK-10 renal was > 100 µM in each case.

Turning to `O=C(CC1=NCCN1)c1ccccc1`, the TGI in the assay with OVCAR-5 ovarian is > 750 µM; with NCI-H226 lung it was 742 µM; in the assay with SN12C renal, > 750 µM; with SK-MEL-5 melanoma, > 750 µM; in the assay with NCI/ADR-RES ovarian, > 750 µM; in the assay on HCT-15 colon it was > 750 µM. Further, in the assay with A549 NSCLC, the concentration for total growth inhibition (TGI) is > 285 µM.

As for `O=c1[nH]nc(-c2ccccc2)c2[nH]c(-c3ccccc3)cc12`, the TGI in the assay with OVCAR-5 ovarian, with SN12C renal, in the assay on BT-549 breast, with NCI/ADR-RES ovarian, with DU-145 prostate and with HCT-15 colon was > 100 µM in each case. Also, in the assay with A549 NSCLC, the total growth inhibition concentration (TGI) was > 100 µM.

For `NC1CNC(=O)c2c(Cl)sc(Cl)c21` (stereo not drawn), the TGI with OVCAR-5 ovarian, in the assay on NCI-H226 lung, with SN12C renal, in the assay on NCI/ADR-RES ovarian, with DU-145 prostate and in the assay on HCT-15 colon was > 100 µM each time. Moreover, the TGI with A549 NSCLC and with TK-10 renal was > 100 µM in each case.

With `O=C(N/N=C/c1cc(Br)cc(Br)c1[O-])c1ccccc1O.O=C(N/N=C/c1cc(Br)cc(Br)c1[O-])c1ccccc1O.[Fe+2]`, the total growth inhibition concentration (TGI) stood at 15.8 µM in the assay on OVCAR-5 ovarian; 7.41 µM in the assay on NCI-H226 lung; 23.4 µM in the assay with SK-MEL-5 melanoma; 13.8 µM in the assay on HCT-15 colon; 29.3 µM with A549 NSCLC; 28.5 µM in the assay with TK-10 renal.

Regarding `CC1(C)OCC2OC3([C@H]4OC(C)(C)O[C@@H]4CO)OC(C)(C)OC3C2O1` (stereo partly drawn), the TGI with OVCAR-5 ovarian, in the assay with NCI-H226 lung, in the assay with SN12C renal, in the assay with SK-MEL-5 melanoma, with BT-549 breast and in the assay with NCI/ADR-RES ovarian was > 100 µM each time. Further, the TGI with DU-145 prostate, in the assay on HCT-15 colon and in the assay with A549 NSCLC was > 100 µM throughout.

`O=C(O)C(CO)NC(=O)n1c2ccccc2c2ccccc21` (stereo not drawn): the total growth inhibition concentration (TGI) with NCI-H226 lung, with SN12C renal, in the assay on SK-MEL-5 melanoma, with HCT-15 colon, with A549 NSCLC and in the assay on TK-10 renal was > 100 µM in each case.

On to `OC1(c2ccc(Cl)cc2)c2ccc3ccccc3c2C2=N[C@H]3CCCC[C@@H]3N21` (stereo partly drawn), for which the TGI is 57.2 µM with OVCAR-5 ovarian; > 100 µM in the assay on NCI-H226 lung; > 100 µM in the assay on SN12C renal; > 100 µM with SK-MEL-5 melanoma; 5.99 µM in the assay on NCI/ADR-RES ovarian; 37.2 µM in the assay on DU-145 prostate. Further, the TGI with HCT-15 colon is 28.3 µM; in the assay with A549 NSCLC, > 100 µM; in the assay on TK-10 renal, 4.87 µM.

Consider `COc1c(C)c2nc3ccccc3[nH]c2c2c(=O)ccnc12`, for which the total growth inhibition concentration (TGI) in the assay with OVCAR-5 ovarian, in the assay on NCI-H226 lung, in the assay with SN12C renal, in the assay with SK-MEL-5 melanoma, in the assay on NCI/ADR-RES ovarian and in the assay with DU-145 prostate was > 100 µM each time. In addition, the TGI in the assay on HCT-15 colon, in the assay with A549 NSCLC and in the assay with TK-10 renal was > 100 µM each time.

As a reminder, the TGI is the concentration giving total growth inhibition. Lower therefore signals greater sensitivity of the cells.

Source of the values: PubChem BioAssay (NCI).
